Paper PMC5353720 (2017)

Tested on: PSA-aptamer (DNA, aptamer) TTTTTAATTAAAGCTCGCCATCAAATAGCTTT
Test: extended-gate field-effect transistor (AptaFET)
Conditions: PBS, 1 mM MgCl2 (incubation); PBS (readout); 500 nM highest tested; shift 2.7 ± 0.3 mV against 22.3 mV on TFV-aptamer; immobilised aptamer

`C[C@H](Cn1cnc2c(N)ncnc21)OCP(=O)(O)O` was tested. Which binding did it give?
The binding was “no”.
